Assay: molar heat capacity at saturation pressure
Conditions: Liquid, Large sample (1 g) DSC

CCOC(C)(C)C [2-ethoxy-2-methylpropane]
Conditions | molar heat capacity [J/K/mol]
277.14 K | 211.4
281.17 K | 213.3
283.15 K | 214.2
285.16 K | 215.2
287.15 K | 216
289.16 K | 216.9
291.14 K | 217.7
293.14 K | 218.5
295.15 K | 219.3
297.14 K | 220.1
299.15 K | 220.9
301.14 K | 221.7
303.16 K | 222.6
305.14 K | 223.3
307.15 K | 224.2
309.14 K | 225.3
311.15 K | 225.9
313.14 K | 226.7
315.16 K | 227.6
317.14 K | 228.6
319.15 K | 229.5
321.14 K | 230.1
323.15 K | 231
325.14 K | 231.7
327.16 K | 232.6
329.15 K | 233.3
331.16 K | 234.2
333.15 K | 235.1
335.16 K | 235.9
338.16 K | 237.1
339.14 K | 237.4
341.15 K | 238.1

CCC(C)(C)OC [2-methoxy-2-methylbutane]
Conditions | molar heat capacity [J/K/mol]
279.16 K | 206.8
281.15 K | 207.7
283.16 K | 208.5
285.16 K | 209.3
287.16 K | 210.2
289.16 K | 211
291.17 K | 211.7
293.15 K | 212.5
295.15 K | 213.5
297.16 K | 214.5
299.16 K | 215.3
301.14 K | 216.1
303.14 K | 216.9
305.15 K | 217.8
307.15 K | 218.3
309.15 K | 219.1
311.16 K | 220.1
313.16 K | 220.6
315.13 K | 221.3
317.13 K | 222.1
319.14 K | 222.8
321.14 K | 223.5
323.14 K | 224.5
325.15 K | 225
327.16 K | 225.7
329.16 K | 226.7
331.17 K | 227.4
333.13 K | 228.1
335.14 K | 228.9
337.14 K | 229.7
339.15 K | 230.4
341.16 K | 231
343.17 K | 231.9
345.14 K | 232.6
347.14 K | 233.5
349.15 K | 234.3
351.15 K | 234.9
353.16 K | 235.7
355.14 K | 236.4

COC(C)(C)C [2-methoxy-2-methylpropane]
Conditions | molar heat capacity [J/K/mol]
277.15 K | 180.9
279.15 K | 181.4
281.16 K | 182.3
283.15 K | 183.1
285.15 K | 183.8
287.14 K | 184.4
289.16 K | 185.3
291.15 K | 186
293.16 K | 186.8
295.15 K | 187.7
297.14 K | 188.3
299.14 K | 189
301.16 K | 189.7
303.16 K | 190.4
305.15 K | 191.1
307.15 K | 191.8
309.16 K | 192.6
311.16 K | 193.2
313.15 K | 193.9
315.15 K | 194.6
317.14 K | 195.2
319.16 K | 196
321.15 K | 196.5
323.15 K | 197.3
325.15 K | 198

CC(C)OC(C)C [diisopropyl ether]
Conditions | molar heat capacity [J/K/mol]
277.17 K | 207.7
279.16 K | 208.5
281.15 K | 209.4
283.14 K | 210.4
285.16 K | 211.3
287.16 K | 212.2
289.15 K | 213.1
291.17 K | 214
293.15 K | 214.8
295.16 K | 215.5
297.16 K | 216.3
299.16 K | 217.2
301.16 K | 218
303.15 K | 218.7
305.14 K | 219.5
307.14 K | 220.3
309.16 K | 221
311.15 K | 222
313.15 K | 222.7
315.15 K | 223.6
317.17 K | 224.4
319.16 K | 225.1
321.15 K | 225.9
323.14 K | 226.7
325.14 K | 227.4
327.13 K | 228.3
329.16 K | 229
331.15 K | 229.9
333.15 K | 230.5
335.14 K | 231.4
337.14 K | 232.2

Reference: the NIST ThermoML archive (doi:10.1021/je0340699)
